Measurements from article PMC3953731 (FEBS Open Bio, 2014).

T1: Ima5p (Saccharomyces cerevisiae, UniProt P40884)
T1 sequence (P40884 1-581): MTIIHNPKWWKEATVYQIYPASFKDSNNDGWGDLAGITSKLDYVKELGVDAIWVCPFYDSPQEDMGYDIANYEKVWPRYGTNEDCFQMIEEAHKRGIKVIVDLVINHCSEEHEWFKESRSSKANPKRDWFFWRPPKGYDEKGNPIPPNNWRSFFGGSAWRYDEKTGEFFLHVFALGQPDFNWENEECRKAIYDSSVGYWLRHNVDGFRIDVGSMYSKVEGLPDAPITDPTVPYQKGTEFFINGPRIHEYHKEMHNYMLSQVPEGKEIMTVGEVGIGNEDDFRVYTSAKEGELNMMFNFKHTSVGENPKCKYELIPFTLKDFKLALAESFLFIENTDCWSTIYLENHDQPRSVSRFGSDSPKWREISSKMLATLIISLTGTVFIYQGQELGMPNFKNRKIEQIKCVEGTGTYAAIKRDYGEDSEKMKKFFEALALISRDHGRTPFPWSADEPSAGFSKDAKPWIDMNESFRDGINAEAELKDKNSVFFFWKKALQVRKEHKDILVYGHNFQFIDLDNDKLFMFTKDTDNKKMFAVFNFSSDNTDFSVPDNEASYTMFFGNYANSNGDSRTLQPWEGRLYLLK


Legend:
Ima3pL240P = Ima3pL240P (Saccharomyces cerevisiae, UniProt P0CW40, L240P); experiment: Substrate specificity of purified isomaltase variant; type: biochemical; settings: 100 mM substrate (pNPG 5 mM), citrate–potassium phosphate buffer, pH 7, 30 °C
Chain of Ima3pL240P (P0CW40 whole entry L240P): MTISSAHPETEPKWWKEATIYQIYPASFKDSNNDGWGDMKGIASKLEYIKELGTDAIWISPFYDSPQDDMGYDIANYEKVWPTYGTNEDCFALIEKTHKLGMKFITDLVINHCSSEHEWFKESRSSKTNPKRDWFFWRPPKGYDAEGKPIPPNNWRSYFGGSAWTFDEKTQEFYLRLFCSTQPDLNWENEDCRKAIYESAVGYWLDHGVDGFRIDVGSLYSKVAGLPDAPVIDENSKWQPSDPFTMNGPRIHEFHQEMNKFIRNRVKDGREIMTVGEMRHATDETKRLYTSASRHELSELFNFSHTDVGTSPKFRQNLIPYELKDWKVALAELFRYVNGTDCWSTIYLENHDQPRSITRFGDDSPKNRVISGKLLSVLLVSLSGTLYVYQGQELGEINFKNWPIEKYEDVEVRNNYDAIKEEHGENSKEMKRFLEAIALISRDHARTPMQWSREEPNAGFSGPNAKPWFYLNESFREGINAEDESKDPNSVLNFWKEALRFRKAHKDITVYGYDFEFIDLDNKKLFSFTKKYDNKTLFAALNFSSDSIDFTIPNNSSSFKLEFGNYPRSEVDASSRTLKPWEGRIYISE

Ima5p [1] = target: T1, Ima5p; experiment: Kinetic parameters for selected substrates; type: biochemical; settings: for Km: affinity constant for the substrate; for Km / kcat: mean ± SEM; for Ki: inhibition by high concentration of substrate
Ima2p [2] = target: T2, Ima2p (Saccharomyces cerevisiae, UniProt Q08295); experiment: Kinetic parameters for selected substrates; type: biochemical; settings: for Km: affinity constant for the substrate; for Km / kcat: mean ± SEM; for Ki: inhibition by high concentration of substrate
T2 sequence (Q08295 whole entry): as the sequence (P0CW40 whole entry L240P) above, with T54A, R279Q counted along it

Ima5p [3] = target: T1, Ima5p; experiment: Substrate specificity of purified isomaltase; type: biochemical; settings: 100 mM substrate (pNPG 5 mM), pH 7, 30 °C; for Specific activities: citrate–potassium phosphate buffer
Ima3p [4] = target: T3, Ima3p (Saccharomyces cerevisiae, UniProt P0CW40); experiment: Substrate specificity of purified isomaltase; type: biochemical; settings: 100 mM substrate (pNPG 5 mM), pH 7, 30 °C; for Specific activities: citrate–potassium phosphate buffer
T3 sequence (P0CW40 whole entry): as the sequence (P0CW40 whole entry L240P) above, with P240L counted along it

Ima2p [5] = target: T2, Ima2p; experiment: Substrate specificity of purified isomaltase; type: biochemical; settings: 100 mM substrate (pNPG 5 mM), pH 7, 30 °C; for Specific activities: citrate–potassium phosphate buffer
Ima1p [6] = target: T4, Ima1p (Saccharomyces cerevisiae, UniProt P53051); experiment: Kinetic parameters for selected substrates; type: biochemical; settings: for Km: affinity constant for the substrate; for Km / kcat: mean ± SEM; for Ki: inhibition by high concentration of substrate
T4 sequence (P53051 whole entry): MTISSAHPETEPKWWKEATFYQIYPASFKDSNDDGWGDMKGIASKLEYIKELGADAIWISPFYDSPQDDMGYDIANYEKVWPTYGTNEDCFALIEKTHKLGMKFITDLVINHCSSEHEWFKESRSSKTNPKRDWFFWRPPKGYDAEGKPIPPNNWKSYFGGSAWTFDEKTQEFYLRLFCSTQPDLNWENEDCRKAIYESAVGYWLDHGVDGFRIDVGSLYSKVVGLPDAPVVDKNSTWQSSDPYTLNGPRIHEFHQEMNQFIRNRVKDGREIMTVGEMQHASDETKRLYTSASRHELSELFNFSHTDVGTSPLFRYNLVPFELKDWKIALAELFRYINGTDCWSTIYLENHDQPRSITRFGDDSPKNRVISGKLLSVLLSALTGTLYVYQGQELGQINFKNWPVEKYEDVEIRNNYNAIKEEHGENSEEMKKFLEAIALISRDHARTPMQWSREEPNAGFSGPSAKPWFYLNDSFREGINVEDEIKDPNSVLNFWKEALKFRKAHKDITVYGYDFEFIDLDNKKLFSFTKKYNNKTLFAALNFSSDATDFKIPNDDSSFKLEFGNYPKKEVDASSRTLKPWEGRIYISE

Ima3p [7] = target: T3, Ima3p; experiment: Kinetic parameters for selected substrates; type: biochemical; settings: for Km: affinity constant for the substrate; for Km / kcat: mean ± SEM; for Ki: inhibition by high concentration of substrate
Ima3pR279Q = Ima3pR279Q (Saccharomyces cerevisiae, UniProt P0CW40, R279Q); experiment: Substrate specificity of purified isomaltase variant; type: biochemical; settings: 100 mM substrate (pNPG 5 mM), citrate–potassium phosphate buffer, pH 7, 30 °C
Ima1p [8] = target: T4, Ima1p; experiment: Substrate specificity of purified isomaltase; type: biochemical; settings: 100 mM substrate (pNPG 5 mM), pH 7, 30 °C; for Specific activities: citrate–potassium phosphate buffer
[9] = Thermostability assay: time-dependent heat inactivation, half-life; type: biochemical, Saccharomyces cerevisiae; settings: pNPG 5 mM, mean ± 2 SEM
[10] = Melting temperature by differential scanning fluorimetry; type: physicochemical, Saccharomyces cerevisiae; settings: mean ± 2 SEM

Row | Molecule | Specific activities (Ima3pL240P) [µmol/min/mg] | Km (Ima5p [1]) [mM] | kcat (Ima5p [1]) [s⁻¹] | Km (Ima2p [2]) [mM] | kcat (Ima2p [2]) [s⁻¹] | Specific activities (Ima5p [3]) [µmol/min/mg] | relative activity, velocity on isomaltose set to 100 (Ima5p [3]) [%] | Specific activities (Ima3p [4]) [µmol/min/mg] | relative activity, velocity on isomaltose set to 100 (Ima3p [4]) [%] | Specific activities (Ima2p [5]) [µmol/min/mg] | relative activity, velocity on isomaltose set to 100 (Ima2p [5]) [%] | Km (Ima1p [6]) [mM] | kcat (Ima1p [6]) [s⁻¹] | Ki (Ima3p [7]) | kcat (Ima3p [7]) [s⁻¹] | Specific activities (Ima3pR279Q) [µmol/min/mg] | Specific activities (Ima1p [8]) [µmol/min/mg] | relative activity, velocity on isomaltose set to 100 (Ima1p [8]) [%] | Ki (Ima5p [1]) | Ki (Ima2p [2]) | other results
1 | OC[C@H]1O[C@H](OC[C@H]2OC(O)(CO)[C@@H](O)[C@@H]2O)[C@H](O)[C@@H](O)[C@@H]1O (stereo partly drawn) [Palatinose, O-α-D-Glucosyl-(1→6)-D-fructose] | 2.8 | 12 ± 3 | 56 ± 5 | 11 ± 2 | 104 ± 6 | 39 | 60 | 5 | 69 | 74 | 137 | 18 ± 4 | 78 ± 8 | None | 6.0 ± 0.1 | 33 | 52 | 87 |  |  | Km (Ima3p [7]): 7 ± 0.7 mM
2 | OC[C@H]1O[C@H](OC[C@H]2O[C@H](O)[C@H](O)[C@@H](O)[C@@H]2O)[C@H](O)[C@@H](O)[C@@H]1O [Isomaltose, O-α-D-Glucosyl-(1→6)-α-D-glucose] | 2.2 | 13 ± 2 | 101 ± 8 | 17 ± 2 | 97 ± 5 | 65 | 100 | 7.2 | 100 | 54 | 100 | 17 ± 4 | 103 ± 12 |  | 15 ± 2 | 29 | 60 | 100 |  |  | Km (Ima3p [7]): 37 ± 9 mM
3 | OC[C@H]1O[C@H](OC[C@H]2O[C@H](O[C@H]3[C@H](O)[C@@H](O)C(O)O[C@@H]3CO)[C@H](O)[C@@H](O)[C@@H]2O)[C@H](O)[C@@H](O)[C@@H]1O (stereo partly drawn) [Panose, O-α-D-Glucosyl-(1→6)-α-D-glucosyl-(1→4)-D-glucose] | 0 | 82 ± 12 | 23 ± 1 |  | 7.7 ± 0.7 | 11 | 17 | 0 |  | 2.9 | 5 | 82 ± 17 | 6.3 ± 0.5 | None | 0 | 3.1 | 3.1 | 5 | None | None | more activity of Ima5p than Ima1p (Ima5p [1]; whatsoever the panose concentration): 3.5 fold; Ki (Ima1p [6]): None
4 | OC[C@H]1O[C@H](OC[C@H]2O[C@H](OC[C@H]3OC(O)[C@H](O)[C@@H](O)[C@@H]3O)[C@H](O)[C@@H](O)[C@@H]2O)[C@H](O)[C@@H](O)[C@@H]1O (stereo partly drawn) [Isomaltotriose, O-α-D-Glucosyl-(1→6)-α-D-glucosyl-(1→6)-D-glucose] |  | 83 ± 25 | 18 ± 3 | 72 ± 16 | 15 ± 2 | 8.6 | 13 | 0 |  | 7.6 | 14 |  | 21 ± 4 | None | 0 |  | 7.9 | 13 | None | None | Ki (Ima1p [6]): None
5 | OC[C@H]1O[C@@](CO)(O[C@H]2O[C@H](CO)[C@@H](O)[C@H](O)[C@H]2O)[C@@H](O)[C@@H]1O [Sucrose, O-α-D-Glucosyl-(1→2)-β-D-fructose] | 11.2 |  | 3.8 ± 0.2 |  | 55 ± 4 | 1.2 | 2 | 10.2 | 142 | 19.7 | 36 |  | 51 ± 4 | None | 25 ± 1 | 22 | 18.6 | 31 | None | None | lower activity of Ima5p than Ima1p (Ima5p [1]): 10 fold; relative activity, velocity on isomaltose set to 100 (Ima2p [5]; listed as sucrose): approx. 35%; Ki (Ima1p [6]): None; catalytic efficiency on sucrose, times lower than on isomaltose (Ima3p [7]): 2 times; catalytic efficiency on sucrose, times lower than on palatinose (Ima3p [7]): 4 times; relative activity, velocity on isomaltose set to 100 (Ima1p [8]; listed as sucrose): approx. 35%
6 | OC[C@H]1O[C@H](O[C@@H]2COC(O)(CO)[C@@H](O)[C@@H]2O)[C@H](O)[C@@H](O)[C@@H]1O (stereo partly drawn) [Leucrose, O-α-D-Glucosyl-(1→5)-D-fructose] | 0 |  |  |  |  | 1.1 | 2 | 0 |  | 8.6 | 16 |  |  |  |  | 1.5 | 8.6 | 14 |  |  | 
7 | Ima3p_R279Q: Ima3p variant with R279Q mutation (protein, UniProt P0CW40 1-589, looked up, variant R279Q) Oligo-1,6-glucosidase IMA3: MTISSAHPETEPKWWKEATIYQIYPASFKDSNNDGWGDMKGIASKLEYIKELGTDAIWISPFYDSPQDDMGYDIANYEKVWPTYGTNEDCFALIEKTHKLGMKFITDLVINHCSSEHEWFKESRSSKTNPKRDWFFWRPPKGYDAEGKPIPPNNWRSYFGGSAWTFDEKTQEFYLRLFCSTQPDLNWENEDCRKAIYESAVGYWLDHGVDGFRIDVGSLYSKVAGLPDAPVIDENSKWQLSDPFTMNGPRIHEFHQEMNKFIRNRVKDGREIMTVGEMQHATDETKRLYTSASRHELSELFNFSHTDVGTSPKFRQNLIPYELKDWKVALAELFRYVNGTDCWSTIYLENHDQPRSITRFGDDSPKNRVISGKLLSVLLVSLSGTLYVYQGQELGEINFKNWPIEKYEDVEVRNNYDAIKEEHGENSKEMKRFLEAIALISRDHARTPMQWSREEPNAGFSGPNAKPWFYLNESFREGINAEDESKDPNSVLNFWKEALRFRKAHKDITVYGYDFEFIDLDNKKLFSFTKKYDNKTLFAALNFSSDSIDFTIPNNSSSFKLEFGNYPRSEVDASSRTLKPWEGRIYISE |  |  |  |  |  |  |  |  |  |  |  |  |  |  |  |  |  |  |  |  | t1/2 ([9]; 37 °C): 9.5 ± 1.7 min; t1/2 ([9]; 40 °C): 2.0 ± 0.3 min; Tm ([10]; pH 7, DSF): 37.6 ± 0.8 °C
8 | Ima5p: isomaltase from S. cerevisiae encoded by IMA5/YJL216C, His-tagged, purified (protein, UniProt P40884 1-581, looked up, His tag) Oligo-1,6-glucosidase IMA5: MTIIHNPKWWKEATVYQIYPASFKDSNNDGWGDLAGITSKLDYVKELGVDAIWVCPFYDSPQEDMGYDIANYEKVWPRYGTNEDCFQMIEEAHKRGIKVIVDLVINHCSEEHEWFKESRSSKANPKRDWFFWRPPKGYDEKGNPIPPNNWRSFFGGSAWRYDEKTGEFFLHVFALGQPDFNWENEECRKAIYDSSVGYWLRHNVDGFRIDVGSMYSKVEGLPDAPITDPTVPYQKGTEFFINGPRIHEYHKEMHNYMLSQVPEGKEIMTVGEVGIGNEDDFRVYTSAKEGELNMMFNFKHTSVGENPKCKYELIPFTLKDFKLALAESFLFIENTDCWSTIYLENHDQPRSVSRFGSDSPKWREISSKMLATLIISLTGTVFIYQGQELGMPNFKNRKIEQIKCVEGTGTYAAIKRDYGEDSEKMKKFFEALALISRDHGRTPFPWSADEPSAGFSKDAKPWIDMNESFRDGINAEAELKDKNSVFFFWKKALQVRKEHKDILVYGHNFQFIDLDNDKLFMFTKDTDNKKMFAVFNFSSDNTDFSVPDNEASYTMFFGNYANSNGDSRTLQPWEGRLYLLK |  |  |  |  |  |  |  |  |  |  |  |  |  |  |  |  |  |  |  |  | t1/2 ([9]; 37 °C): 2.9 ± 0.4 min; t1/2 ([9]; 40 °C): 0.8 ± 0.1 min; Tm ([10]; pH 6, DSF): 36.6 ± 0.4 °C; Tm ([10]; pH 8, DSF): 35.7 ± 0.5 °C
